Experimental findings from patent US5760235A, “Anticoagulant peptide derivatives and pharmaceutical compositions containing the same as well as a process for preparation thereof” (Gyogyszerkutato Intezet Kft., priority 1992, dated 1998) are described below.

One test deals with native whole human blood. As to the kind of experiment: In vitro whole blood clotting time (WBCT), native human blood. The format is biochemical. The arrangement: unit not given here. Here is the method: (§1) The antithrombin activity of the compounds of general formula (I) was determined by the usual method [Bagdy et al.: Thromb Haemostas 67, 325-330 (1992)] by measuring whole blood clotting time (WBCT), thrombin time (TT) and activated partial thromboplastin time (APTT). The in vitro activity of some compounds of the invention assayed on native human blood (non-anticoagulated clotting) (WBCT) and on citrated blood plasma (TT and APTT) is presented in Table 1.
(§2) ^2 WBCT = whole blood clotting time, TT = thrombin time, APTT =
(§3) activated partial thromboplastin time parameter. The figures represent
(§4) concentrations of the compounds required to double the clotting time of
(§5) native whole human blood or of citrated blood plasma.

Test [1] has as its system citrated blood plasma. As to the kind of experiment: In vitro thrombin time (TT), citrated blood plasma. Also noted: unit not given here. The format is biochemical, human. The procedure: as §1, §2, §3, §4, §5
Test [2] concerns citrated blood plasma. As to the kind of experiment: In vitro activated partial thromboplastin time (APTT), citrated blood plasma. Type of test: biochemical, human. The arrangement: unit not given here. The procedure:
as §1, §2, §3, §4, §5

Test [3] concerns fibrinolysis induced by tissue plasminogen activator. Nature of the test: Fibrinolysis induced by tissue plasminogen activator, thromboelastogram. The format is biochemical. The text has this: The compounds of the general formula (I) inhibit clot formation without interfering with the natural lysis of blood clots in the body, e.g. fibrinolysis. […] Thromboelastography. In: Bang N. U., F. K. Beller, E. Deutsch, E. F. Mamman eds. Thrombosis and Bleeding Disorders. Theory and Methods. Academic Press, London, 1971: 70-76].

In the case of `N=C(N)NCCC[C@@H](C=O)NC(=O)[C@@H]1CCCN1C(=O)[C@@H]1OCCc2ccccc21.N=C(N)NCCC[C@@H](C=O)NC(=O)[C@@H]1CCCN1C(=O)[C@@H]1OCCc2ccccc21.O=S(=O)(O)O` [Example 1, D-Isochroman-1-carbonyl-L-prolyl-L-arginine aldehyde hemisulfate], the “WBCT: concentration required to double the clotting time” value (shortened to “WBCT: concentration required”) in the test with native whole human blood stood at 1.55. The “TT: concentration required to double the clotting time” value with citrated blood plasma [1] was 0.132. Moreover, the “APTT: concentration required to double the clotting time” value (“APTT: concentration required” below) in the test with citrated blood plasma [2] was 0.60.
For `N=C(N)NCCC[C@@H](C=O)NC(=O)[C@H]1CCCN1C(=O)C(O)c1ccccc1.N=C(N)NCCC[C@@H](C=O)NC(=O)[C@H]1CCCN1C(=O)C(O)c1ccccc1.O=S(=O)(O)O` (stereo partly drawn) [Example 6, D-2-Phenyl-2-hydroxyacetyl-L-prolyl-L-arginine aldehyde hemisulfate], in the test on native whole human blood, the “WBCT: concentration required” value is listed as 0.45. Also, the “TT: concentration required to double the clotting time” value with citrated blood plasma [1] came out at 0.040. Also, the “inhibitory effect on fibrinolysis induced by tissue plasminogen activator” value in test [3] was “only negligible inhibitory effect”. Besides, the “APTT: concentration required” value in the test on citrated blood plasma [2] stood at 0.15.
As for `N=C(N)NCCC[C@@H](C=O)NC(=O)[C@H]1CCCN1C(=O)C(O)C1CCCCC1.N=C(N)NCCC[C@@H](C=O)NC(=O)[C@H]1CCCN1C(=O)C(O)C1CCCCC1.O=S(=O)(O)O` (stereo partly drawn) [Example 8, D-2-Cyclohexyl-2-hydroxyacetyl-L-prolyl-L-arginine aldehyde hemisulfate], in the test with native whole human blood, the “WBCT: concentration required” value was found to be 0.72. Besides, in the test with citrated blood plasma [1], the “TT: concentration required to double the clotting time” value came to 0.100. Besides, the “inhibitory effect on fibrinolysis induced by tissue plasminogen activator” value in test [3] is on record as “only negligible inhibitory effect”. Moreover, in the test with citrated blood plasma [2], the “APTT: concentration required” value was 0.35.
Take `N=C(N)NCCC[C@@H](C=O)NC(=O)[C@@H]1CCCN1C(=O)[C@H](O)C(c1ccccc1)c1ccccc1.N=C(N)NCCC[C@@H](C=O)NC(=O)[C@@H]1CCCN1C(=O)[C@H](O)C(c1ccccc1)c1ccccc1.O=S(=O)(O)O` [Example 12, 3,3-Diphenyl-D-lactyl-L-prolyl-L-arginine aldehyde hemisulfate]: in the test with native whole human blood, the “WBCT: concentration required” value is listed as 0.52. In the test with citrated blood plasma [1], the “TT: concentration required to double the clotting time” value is 0.077. Also, the “APTT: concentration required” value in the test with citrated blood plasma [2] was found to be 0.12.
As to `N=C(N)NCCC[C@@H](C=O)NC(=O)[C@H]1CCCN1C(=O)C(O)c1ccc2ccccc2c1.N=C(N)NCCC[C@@H](C=O)NC(=O)[C@H]1CCCN1C(=O)C(O)c1ccc2ccccc2c1.O=S(=O)(O)O` (stereo partly drawn) [Example 13, D-2-(2-Naphthyl)-2-hydroxyacetyl-L-prolyl-L-arginine aldehyde hemisulfate], in the test with native whole human blood, the “WBCT: concentration required” value worked out at 1.13. In the test with citrated blood plasma [1], the “TT: concentration required to double the clotting time” value was found to be 0.100. Further, in the test on citrated blood plasma [2], the “APTT: concentration required” value came to 1.00.
On the same counts, the results for `N=C(N)NCCC[C@@H](C=O)NC(=O)[C@H]1CCCN1C(=O)C(O)c1cccc2ccccc12.N=C(N)NCCC[C@@H](C=O)NC(=O)[C@H]1CCCN1C(=O)C(O)c1cccc2ccccc12.O=S(=O)(O)O` (stereo partly drawn) [Example 14, D-2-(1-Naphthyl)-2-hydroxyacetyl-L-prolyl-L-arginine aldehyde hemisulfate] are 1.04, 0.150 and 0.52.
